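Compound exposure: 48 hours, 5 concentrations, 96-well plates. GI50 marks 50% less growth. TGI is the concentration that stops growth completely.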
Tests used:
Assay in all cases: NCI anticancer screen, dose series, 48 h
RXF 393 renal = system: RXF 393 renal
M14 melanoma = system: M14 melanoma
SK-MEL-5 melanoma = system: SK-MEL-5 melanoma
T-47D breast = system: T-47D breast
SK-OV-3 ovarian = system: SK-OV-3 ovarian
SF-539 CNS = system: SF-539 CNS
HCC-2998 colon = system: HCC-2998 colon
K-562 leukemia = system: K-562 leukemia
UACC-62 melanoma = system: UACC-62 melanoma
TK-10 renal = system: TK-10 renal
IGROV1 ovarian = system: IGROV1 ovarian
ACHN renal = system: ACHN renal
A498 renal = system: A498 renal
UO-31 renal = system: UO-31 renal
HS 578T breast = system: HS 578T breast
SK-MEL-2 melanoma = system: SK-MEL-2 melanoma
HOP-92 NSCLC = system: HOP-92 NSCLC
SNB-75 CNS = system: SNB-75 CNS
HT29 colon = system: HT29 colon
A549 NSCLC = system: A549 NSCLC
HCT-116 colon = system: HCT-116 colon
OVCAR-8 ovarian = system: OVCAR-8 ovarian
SK-MEL-28 melanoma = system: SK-MEL-28 melanoma
CAKI-1 renal = system: CAKI-1 renal
SF-295 CNS = system: SF-295 CNS
NCI-H522 lung = system: NCI-H522 lung
MCF7 breast = system: MCF7 breast
OVCAR-3 ovarian = system: OVCAR-3 ovarian
PC-3 prostate = system: PC-3 prostate
MOLT-4 leukemia = system: MOLT-4 leukemia
OVCAR-5 ovarian = system: OVCAR-5 ovarian
MDA-MB-435 = system: MDA-MB-435
EKVX NSCLC = system: EKVX NSCLC
SW-620 colon = system: SW-620 colon
HOP-62 NSCLC = system: HOP-62 NSCLC
786-0 renal = system: 786-0 renal
BT-549 breast = system: BT-549 breast
CCRF-CEM leukemia = system: CCRF-CEM leukemia
DU-145 prostate = system: DU-145 prostate
U251 CNS = system: U251 CNS
KM12 colon = system: KM12 colon
SNB-19 CNS = system: SNB-19 CNS
NCI-H23 lung = system: NCI-H23 lung
SN12C renal = system: SN12C renal
SR leukemia = system: SR leukemia
NCI-H460 lung = system: NCI-H460 lung
HCT-15 colon = system: HCT-15 colon
SF-268 CNS = system: SF-268 CNS

Structure (SMILES): CCN(C(=O)N1CCN(c2cc3c(cc2F)c(=O)c(C(=O)O)cn3C2CC2)CC1)c1nc(-c2ccc(C)cc2)cs1
- GI50 (RXF 393 renal): 0.38 µM
- TGI (RXF 393 renal): 4.2 µM
- GI50 (M14 melanoma): 0.928 µM
- TGI (M14 melanoma): > 100 µM
- GI50 (SK-MEL-5 melanoma): 0.858 µM
- TGI (SK-MEL-5 melanoma): > 100 µM
- GI50 (T-47D breast): 2.11 µM
- TGI (T-47D breast): > 100 µM
- GI50 (SK-OV-3 ovarian): 1.53 µM
- TGI (SK-OV-3 ovarian): 19.4 µM
- GI50 (SF-539 CNS): 0.356 µM
- TGI (SF-539 CNS): 2.65 µM
- GI50 (HCC-2998 colon): 0.694 µM
- TGI (HCC-2998 colon): > 100 µM
- GI50 (K-562 leukemia): 0.431 µM
- TGI (K-562 leukemia): > 100 µM
- GI50 (UACC-62 melanoma): 0.837 µM
- TGI (UACC-62 melanoma): > 100 µM
- GI50 (TK-10 renal): 2.7 µM
- TGI (TK-10 renal): > 33.3 µM
- GI50 (IGROV1 ovarian): 0.354 µM
- TGI (IGROV1 ovarian): > 100 µM
- GI50 (ACHN renal): 0.976 µM
- TGI (ACHN renal): > 100 µM
- TGI (A498 renal): 0.486 µM
- GI50 (UO-31 renal): 0.322 µM
- TGI (UO-31 renal): > 100 µM
- GI50 (HS 578T breast): 0.46 µM
- TGI (HS 578T breast): 4.28 µM
- GI50 (SK-MEL-2 melanoma): 2.5 µM
- TGI (SK-MEL-2 melanoma): 7.38 µM
- GI50 (HOP-92 NSCLC): 0.708 µM
- TGI (HOP-92 NSCLC): 2.8 µM
- GI50 (SNB-75 CNS): 1.09 µM
- TGI (SNB-75 CNS): 5.08 µM
- GI50 (HT29 colon): 0.332 µM
- TGI (HT29 colon): > 100 µM
- GI50 (A549 NSCLC): 0.42 µM
- TGI (A549 NSCLC): > 100 µM
- GI50 (HCT-116 colon): 1.04 µM
- TGI (HCT-116 colon): > 40.1 µM
- GI50 (OVCAR-8 ovarian): 1.41 µM
- TGI (OVCAR-8 ovarian): > 100 µM
- GI50 (SK-MEL-28 melanoma): 0.687 µM
- TGI (SK-MEL-28 melanoma): > 100 µM
- GI50 (CAKI-1 renal): 1.4 µM
- TGI (CAKI-1 renal): > 100 µM
- GI50 (SF-295 CNS): 0.306 µM
- TGI (SF-295 CNS): 3.76 µM
- GI50 (NCI-H522 lung): 1.02 µM
- GI50 (MCF7 breast): 1.31 µM
- TGI (MCF7 breast): > 100 µM
- GI50 (OVCAR-3 ovarian): 0.368 µM
- TGI (OVCAR-3 ovarian): 2.47 µM
- GI50 (PC-3 prostate): 0.375 µM
- TGI (PC-3 prostate): > 100 µM
- GI50 (MOLT-4 leukemia): 0.469 µM
- TGI (MOLT-4 leukemia): > 100 µM
- GI50 (OVCAR-5 ovarian): 0.68 µM
- TGI (OVCAR-5 ovarian): > 100 µM
- GI50 (MDA-MB-435): 0.56 µM
- TGI (MDA-MB-435): > 100 µM
- GI50 (EKVX NSCLC): 1.52 µM
- TGI (EKVX NSCLC): > 100 µM
- GI50 (SW-620 colon): 0.653 µM
- TGI (SW-620 colon): > 100 µM
- GI50 (HOP-62 NSCLC): 1.41 µM
- TGI (HOP-62 NSCLC): > 100 µM
- GI50 (786-0 renal): 0.954 µM
- TGI (786-0 renal): 10.8 µM
- GI50 (BT-549 breast): 0.336 µM
- TGI (BT-549 breast): 1.56 µM
- GI50 (CCRF-CEM leukemia): 0.356 µM
- TGI (CCRF-CEM leukemia): > 100 µM
- GI50 (DU-145 prostate): 0.442 µM
- TGI (DU-145 prostate): 82.8 µM
- GI50 (U251 CNS): 1.04 µM
- TGI (U251 CNS): > 20.9 µM
- GI50 (KM12 colon): 0.41 µM
- TGI (KM12 colon): > 100 µM
- GI50 (SNB-19 CNS): 1.03 µM
- TGI (SNB-19 CNS): > 45.4 µM
- GI50 (NCI-H23 lung): 0.399 µM
- TGI (NCI-H23 lung): 24.6 µM
- GI50 (SN12C renal): 0.365 µM
- TGI (SN12C renal): > 100 µM
- GI50 (SR leukemia): 0.269 µM
- TGI (SR leukemia): > 100 µM
- GI50 (NCI-H460 lung): 0.356 µM
- TGI (NCI-H460 lung): 11.9 µM
- GI50 (HCT-15 colon): 0.341 µM
- TGI (HCT-15 colon): > 100 µM
- GI50 (SF-268 CNS): 1.06 µM
- TGI (SF-268 CNS): > 100 µM
